{
  "source": "patent US5814640A",
  "about": "“Method of treating gastrointestinal malignancies” (Montefiore Medical Center, priority 1997, dated 1998)",
  "key": {"SW480": {"system": "SW480", "assay": "Cytokinetic studies (cell cycle distribution by flow cytometry), SW480", "format": "cell-based, human", "description": "Cells were cultured in RPMI 1640 with 10% fetal calf serum.\nThe DNA content of propidium-iodide stained nuclei was measured by flow cytometry. Cells in early exponential growth were incubated with or without drug, trypsinized and washed twice in PBS. A total of 10^6 viable cells, as determined by trypan blue exclusion, were permeabilized in sucrose-citrate-DMSO buffer as described by Vindelov et al., enucleated with trypsin and incubated with RNAse. Stripped nuclei were stained with propidium iodide at a final concentration of 2.5 ug/ml. Correlated dual parameter measurements of DNA content (from propidium-iodide red fluorescence excited at 488 nm) versus forward angle light scatter were performed using an EPICS C flow cytometer equipped with a 5W ultraviolet enhanced argon ion laser. Histograms consisting of a minimum of 10,000 nuclei were analyzed off-line with an EPICS C to RSX-11M conversion program (EPICOPY) and subsequently analyzed with ROMP and ROC3D programs rewritten for a DEC 11/73 computer. Cell cycle analysis for the compartmental boundaries and number of cells in the G1, S, and G2M phases was performed on ROMP-readable files using either a multiple gaussian fitting routine developed by Dean et al. or, for the perturbed histograms, a parametric method based on multiple broadened rectangles."}, "colorectal cancer": {"system": "colorectal cancer", "details": "cited from earlier work"}, "HT-29": {"system": "HT-29", "assay": "Cytokinetic studies (cell cycle distribution by flow cytometry), HT-29", "format": "cell-based, human", "procedure": "Cells were cultured in RPMI 1640 with 10% fetal calf serum. Doubling times for these cell lines are 18 and 25 hours.\nThe DNA content of propidium-iodide stained nuclei was measured by flow cytometry. Cells in early exponential growth were incubated with or without drug, trypsinized and washed twice in PBS. A total of 10^6 viable cells, as determined by trypan blue exclusion, were permeabilized in sucrose-citrate-DMSO buffer as described by Vindelov et al., enucleated with trypsin and incubated with RNAse. Stripped nuclei were stained with propidium iodide at a final concentration of 2.5 ug/ml. Correlated dual parameter measurements of DNA content (from propidium-iodide red fluorescence excited at 488 nm) versus forward angle light scatter were performed using an EPICS C flow cytometer equipped with a 5W ultraviolet enhanced argon ion laser. Histograms consisting of a minimum of 10,000 nuclei were analyzed off-line with an EPICS C to RSX-11M conversion program (EPICOPY) and subsequently analyzed with ROMP and ROC3D programs rewritten for a DEC 11/73 computer. Cell cycle analysis for the compartmental boundaries and number of cells in the G1, S, and G2M phases was performed on ROMP-readable files using either a multiple gaussian fitting routine developed by Dean et al. or, for the perturbed histograms, a parametric method based on multiple broadened rectangles. […]"}, "[1]": {"details": "5-fluorouracil 50-500 uM, 24 hour incubation"}, "[2]": {"details": "alone or in combination, data not shown"}},
  "data": [
    {"smiles": "O=c1[nH]cc(F)c(=O)[nH]1", "note": "[5-fluorouracil]", "values": [
      {"measurement": "G2M compartment, dose response", "setting": "SW480; [1]", "result": "nearly complete depletion of G2M"},
      {"measurement": "accumulation of cells in S and G2M", "setting": "SW480; 24 hours, alone or in combination, data not shown", "result": "concomitant decrease in the accumulation of cells in S and G2M at 24 hours"},
      {"measurement": "block in G0/G1", "setting": "SW480; [2]", "result": "prolongation of the block in G0/G1 to 24 hours"},
      {"measurement": "effects on cell cycle distribution compared with HT-29", "setting": "SW480; [2]", "result": "qualitatively identical effects"},
      {"measurement": "median survival of treated patients", "setting": "colorectal cancer; compared with untreated controls", "result": "no better than that of untreated controls"},
      {"measurement": "remissions in patients", "setting": "colorectal cancer; disseminated colorectal cancer", "result": "15-35 % of patients"},
      {"measurement": "G2M compartment, dose response", "setting": "HT-29; [1]", "result": "nearly complete depletion of G2M"},
      {"measurement": "time of G2M depletion from start of incubation", "setting": "HT-29; time course, 5-fluorouracil 50 uM, alpha-2a-interferon 500 U/ml", "result": "≤ 7", "unit": "h"}
    ]}
  ]
}
